According to US20250145687A1, “MODIFIED LIGAND-GATED ION CHANNELS AND METHODS OF USE” (Howard Hughes Medical Institute, priority 2022, published 2025):
Where two headings read alike, the source gives them in different places.

Key:
Type in all cases: cell-based
[1] = biological target: T1, α7^L131G,Q139L,Y217F-5HT3 V154I, R155Y, W156N, S172A (Homo sapiens, UniProt P36544, L131G/M226I/Q139L/R155Y/S172A/T225I/V154I/W156N/Y217F); test: EC50 dose response, PSAM4-5HT3 with additional mutations; details: read-out: EC50s (SEM) for additional mutations of α7^L131G, Q139L, Y217F -5HT3
T1 construct: expressed in transfected cells; host or cells: HEK 293

[2] = biological target: T2, α7^L131G,Q139L,Y217F-5HT3 V154I, R155Y, W156N, S172V (Homo sapiens, UniProt P36544, L131G/M226I/Q139L/R155Y/S172V/T225I/V154I/W156N/Y217F); test: as above; details: read-out: EC50s (SEM) for additional mutations of α7^L131G, Q139L, Y217F -5HT3
T2 construct: expressed in transfected cells; host or cells: HEK 293

[3] = biological target: T3, α7^L131G,Q139L,Y217F-5HT3 S172I (Homo sapiens, UniProt P36544, L131G/M226I/Q139L/S172I/T225I/Y217F); test: as above; details: additional mutation S172I; read-out: EC50s (SEM) for additional mutations of α7^L131G, Q139L, Y217F -5HT3
T3 construct: expressed in transfected cells; host or cells: HEK 293

[4] = biological target: T4, α7^L131G,Q139L,Y217F-5HT3 H163T, S172A (Homo sapiens, UniProt P36544, H163T/L131G/M226I/Q139L/S172A/T225I/Y217F); test: as above; details: read-out: EC50s (SEM) for additional mutations of α7^L131G, Q139L, Y217F -5HT3
T4 construct: expressed in transfected cells; host or cells: HEK 293

[5] = biological target: T5, α7^L131G,Q139L,Y217F-5HT3 H163T, S172V (Homo sapiens, UniProt P36544, H163T/L131G/M226I/Q139L/S172V/T225I/Y217F); test: as above; details: read-out: EC50s (SEM) for additional mutations of α7^L131G, Q139L, Y217F -5HT3
T5 construct: expressed in transfected cells; host or cells: HEK 293

[6] = biological target: T6, α7^L131G,Q139L,Y217F-5HT3 H163K (Homo sapiens, UniProt P36544, H163K/L131G/M226I/Q139L/T225I/Y217F); test: as above; details: additional mutation H163K; read-out: EC50s (SEM) for additional mutations of α7^L131G, Q139L, Y217F -5HT3
T6 construct: expressed in transfected cells; host or cells: HEK 293

[7] = biological target: T7, α7^L131G,Q139L,Y217F-5HT3 H163T (Homo sapiens, UniProt P36544, H163T/L131G/M226I/Q139L/T225I/Y217F); test: as above; details: additional mutation H163T; read-out: EC50s (SEM) for additional mutations of α7^L131G, Q139L, Y217F -5HT3
T7 construct: expressed in transfected cells; host or cells: HEK 293

[8] = biological target: T8, α7^L131G,Q139L,Y217F-5HT3 S172V (Homo sapiens, UniProt P36544, L131G/M226I/Q139L/S172V/T225I/Y217F); test: as above; details: additional mutation S172V; read-out: EC50s (SEM) for additional mutations of α7^L131G, Q139L, Y217F -5HT3
T8 construct: expressed in transfected cells; host or cells: HEK 293

[9] = biological target: T9, α7^L131G,Q139L,Y217F-5HT3 H163V (Homo sapiens, UniProt P36544, H163V/L131G/M226I/Q139L/T225I/Y217F); test: as above; details: additional mutation H163V; read-out: EC50s (SEM) for additional mutations of α7^L131G, Q139L, Y217F -5HT3
T9 construct: expressed in transfected cells; host or cells: HEK 293

[10] = biological target: T10, α7^L131G,Q139L,Y217F-5HT3 H163R (Homo sapiens, UniProt P36544, H163R/L131G/M226I/Q139L/T225I/Y217F); test: as above; details: additional mutation H163R; read-out: EC50s (SEM) for additional mutations of α7^L131G, Q139L, Y217F -5HT3
T10 construct: expressed in transfected cells; host or cells: HEK 293

[11] = biological target: T11, α7^L131G,Q139L,Y217F-5HT3 H163F (Homo sapiens, UniProt P36544, H163F/L131G/M226I/Q139L/T225I/Y217F); test: as above; details: additional mutation H163F; read-out: EC50s (SEM) for additional mutations of α7^L131G, Q139L, Y217F -5HT3
T11 construct: expressed in transfected cells; host or cells: HEK 293

[12] = biological target: T12, α7^L131G,Q139L,Y217F-5HT3 W156N, H163T (Homo sapiens, UniProt P36544, H163T/L131G/M226I/Q139L/T225I/W156N/Y217F); test: as above; details: read-out: EC50s (SEM) for additional mutations of α7^L131G, Q139L, Y217F -5HT3
T12 construct: expressed in transfected cells; host or cells: HEK 293

[13] = biological target: T13, α7^L131G,Q139L,Y217F-5HT3 H163A (Homo sapiens, UniProt P36544, H163A/L131G/M226I/Q139L/T225I/Y217F); test: as above; details: additional mutation H163A; read-out: EC50s (SEM) for additional mutations of α7^L131G, Q139L, Y217F -5HT3
T13 construct: expressed in transfected cells; host or cells: HEK 293

[14] = biological target: T14, PSAM4-5HT3 (α7-5HT3^L131G,Q139L,Y217F) (Homo sapiens, UniProt P36544, L131G/M226I/Q139L/T225I/Y217F); test: EC50 dose response of LGIC ligands on PSAM4-5HT3; details: read-out: EC50s (SEM) for additional mutations of α7^L131G, Q139L, Y217F -5HT3
T14 construct: expressed in transfected cells; host or cells: HEK 293

[15] = biological target: T15, α7-5HT3 L131G, Q139L, Y217H (Homo sapiens, UniProt P36544, L131G/M226I/Q139L/T225I/Y217H); test: EC50 dose response, α7-5HT3 mutant; details: read-out: EC50s (SEM) for additional mutations of α7^L131G, Q139L, Y217F -5HT3
T15 construct: expressed in transfected cells; host or cells: HEK 293

[16] = biological target: T16, α7^L131G,Q139L,Y217F-5HT3 S172A (Homo sapiens, UniProt P36544, L131G/M226I/Q139L/S172A/T225I/Y217F); test: EC50 dose response, PSAM4-5HT3 with additional mutations; details: additional mutation S172A; read-out: EC50s (SEM) for additional mutations of α7^L131G, Q139L, Y217F -5HT3
T16 construct: expressed in transfected cells; host or cells: HEK 293

[17] = biological target: T17, α7-5HT3 L131G, Q139L, Y217N (Homo sapiens, UniProt P36544, L131G/M226I/Q139L/T225I/Y217N); test: EC50 dose response, α7-5HT3 mutant; details: read-out: EC50s (SEM) for additional mutations of α7^L131G, Q139L, Y217F -5HT3
T17 construct: 5HT3 ion pore domain (fusion partner); expressed in transfected cells

[18] = biological target: T18, α7^L131G,Q139L,Y217F-5HT3 H163S (Homo sapiens, UniProt P36544, H163S/L131G/M226I/Q139L/T225I/Y217F); test: EC50 dose response, PSAM4-5HT3 with additional mutations; details: additional mutation H163S; read-out: EC50s (SEM) for additional mutations of α7^L131G, Q139L, Y217F -5HT3
T18 construct: expressed in transfected cells; host or cells: HEK 293

[19] = biological target: T19, α7^L131G,Q139L,Y217F-5HT3 V154L, R155Y, W156Q (Homo sapiens, UniProt P36544, L131G/M226I/Q139L/R155Y/T225I/V154L/W156Q/Y217F); test: as above; details: read-out: EC50s (SEM) for additional mutations of α7^L131G, Q139L, Y217F -5HT3
T19 construct: expressed in transfected cells; host or cells: HEK 293

[20] = biological target: T20, α7-5HT3 L131G, Q139L, W171Y (Homo sapiens, UniProt P36544, L131G/M226I/Q139L/T225I/W171Y); test: EC50 dose response, α7-5HT3 mutant; details: read-out: EC50s (SEM) for additional mutations of α7^L131G, Q139L, Y217F -5HT3
T20 construct: expressed in transfected cells; host or cells: HEK 293

[21] = biological target: T21, α7^L131G,Q139L,Y217F-5HT3 H163N (Homo sapiens, UniProt P36544, H163N/L131G/M226I/Q139L/T225I/Y217F); test: EC50 dose response, PSAM4-5HT3 with additional mutations; details: additional mutation H163N; read-out: EC50s (SEM) for additional mutations of α7^L131G, Q139L, Y217F -5HT3
T21 construct: expressed in transfected cells; host or cells: HEK 293

[22] = biological target: T22, α7-5HT3 L131G, Q139L, Y217V (Homo sapiens, UniProt P36544, L131G/M226I/Q139L/T225I/Y217V); test: EC50 dose response, α7-5HT3 mutant; details: read-out: EC50s (SEM) for additional mutations of α7^L131G, Q139L, Y217F -5HT3
T22 construct: 5HT3 ion pore domain (fusion partner); expressed in transfected cells; HEK 293 is named only for the electrophysiology

[23] = biological target: T23, α7^L131G,Q139L,Y217F-5HT3 H163D (Homo sapiens, UniProt P36544, H163D/L131G/M226I/Q139L/T225I/Y217F); test: EC50 dose response, PSAM4-5HT3 with additional mutations; details: additional mutation H163D; read-out: EC50s (SEM) for additional mutations of α7^L131G, Q139L, Y217F -5HT3
T23 construct: expressed in transfected cells; host or cells: HEK 293

[24] = biological target: T24, α7-5HT3 L131G, Q139L, Y217A (Homo sapiens, UniProt P36544, L131G/M226I/Q139L/T225I/Y217A); test: EC50 dose response, α7-5HT3 mutant; details: read-out: EC50s (SEM) for additional mutations of α7^L131G, Q139L, Y217F -5HT3
T24 construct: expressed in transfected cells; host or cells: HEK 293

[25] = biological target: T25, α7-5HT3 L131G, Q139L, W171F (Homo sapiens, UniProt P36544, L131G/M226I/Q139L/T225I/W171F); test: EC50 dose response, α7-5HT3 mutant; details: read-out: EC50s (SEM) for additional mutations of α7^L131G, Q139L, Y217F -5HT3
T25 construct: expressed in transfected cells; host or cells: HEK 293

[26] = biological target: T26, α7^L131G,Q139L,Y217F-5HT3 W156N (Homo sapiens, UniProt P36544, L131G/M226I/Q139L/T225I/W156N/Y217F); test: cell-based; details: additional mutation W156N; read-out: EC50s (SEM) for additional mutations of α7^L131G, Q139L, Y217F -5HT3
T26 construct: expressed in transfected cells; host or cells: HEK 293

T14 sequence (P36544 with tags, fused parts or gaps L131G/Q139L/Y217F/T225I/M226I limits assumed): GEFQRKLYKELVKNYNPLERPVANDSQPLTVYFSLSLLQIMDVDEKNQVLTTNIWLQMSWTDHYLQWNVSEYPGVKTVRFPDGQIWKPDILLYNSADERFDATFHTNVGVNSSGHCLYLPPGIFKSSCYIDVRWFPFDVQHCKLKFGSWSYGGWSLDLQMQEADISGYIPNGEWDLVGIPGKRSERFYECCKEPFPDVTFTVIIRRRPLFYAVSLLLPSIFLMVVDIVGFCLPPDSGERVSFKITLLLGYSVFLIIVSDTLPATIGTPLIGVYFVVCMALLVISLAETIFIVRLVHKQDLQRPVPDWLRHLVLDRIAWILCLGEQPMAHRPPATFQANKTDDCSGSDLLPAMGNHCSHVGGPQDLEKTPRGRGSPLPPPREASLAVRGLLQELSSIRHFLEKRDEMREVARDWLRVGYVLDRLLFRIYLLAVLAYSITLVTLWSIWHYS
T22 sequence (P36544 with tags, fused parts or gaps L131G/Q139L/Y217V/T225I/M226I limits assumed): as the sequence (P36544 with tags, fused parts or gaps L131G/Q139L/Y217F/T225I/M226I limits assumed) above, with F195V counted along it
T11 sequence (P36544 with tags, fused parts or gaps L131G/Q139L/H163F/Y217F/T225I/M226I limits assumed): as the sequence (P36544 with tags, fused parts or gaps L131G/Q139L/Y217F/T225I/M226I limits assumed) above, with H141F counted along it
T18 sequence (P36544 with tags, fused parts or gaps L131G/Q139L/H163S/Y217F/T225I/M226I limits assumed): as the sequence (P36544 with tags, fused parts or gaps L131G/Q139L/Y217F/T225I/M226I limits assumed) above, with H141S counted along it
T3 sequence (P36544 with tags, fused parts or gaps L131G/Q139L/S172I/Y217F/T225I/M226I limits assumed): as the sequence (P36544 with tags, fused parts or gaps L131G/Q139L/Y217F/T225I/M226I limits assumed) above, with S150I counted along it
T21 sequence (P36544 with tags, fused parts or gaps L131G/Q139L/H163N/Y217F/T225I/M226I limits assumed): as the sequence (P36544 with tags, fused parts or gaps L131G/Q139L/Y217F/T225I/M226I limits assumed) above, with H141N counted along it
T25 sequence (P36544 with tags, fused parts or gaps L131G/Q139L/W171F/T225I/M226I limits assumed): as the sequence (P36544 with tags, fused parts or gaps L131G/Q139L/Y217F/T225I/M226I limits assumed) above, with W149F, F195Y counted along it
T7 sequence (P36544 with tags, fused parts or gaps L131G/Q139L/H163T/Y217F/T225I/M226I limits assumed): as the sequence (P36544 with tags, fused parts or gaps L131G/Q139L/Y217F/T225I/M226I limits assumed) above, with H141T counted along it
T10 sequence (P36544 with tags, fused parts or gaps L131G/Q139L/H163R/Y217F/T225I/M226I limits assumed): as the sequence (P36544 with tags, fused parts or gaps L131G/Q139L/Y217F/T225I/M226I limits assumed) above, with H141R counted along it
T9 sequence (P36544 with tags, fused parts or gaps L131G/Q139L/H163V/Y217F/T225I/M226I limits assumed): as the sequence (P36544 with tags, fused parts or gaps L131G/Q139L/Y217F/T225I/M226I limits assumed) above, with H141V counted along it
T1 sequence (P36544 with tags, fused parts or gaps L131G/Q139L/V154I/R155Y/W156N/S172A/Y217F/T225I/M226I limits assumed): as the sequence (P36544 with tags, fused parts or gaps L131G/Q139L/Y217F/T225I/M226I limits assumed) above, with V132I, R133Y, W134N, S150A counted along it

## COc1cnc2cc3c(cc2n1)C1CNCC3C1 (stereo not drawn) [uPSEM 793]
[1]
  EC50: 4.1 nM
[2]
  EC50: 7.7 nM
[3]
  EC50: 10 nM
[4]
  EC50: 2.5 nM
[5]
  EC50: 1.5 nM
[6]
  EC50: 0.5 nM
[7]
  EC50: 1.4 nM
[8]
  EC50: 2.7 nM
[9]
  EC50: 1.5 nM
[10]
  EC50: 1.5 nM
[11]
  EC50: 0.7 nM
[12]
  EC50: 2 nM
[13]
  EC50: 0.5 nM
[14]; PSAM4-5HT3 (no additional mutation)
  EC50: 1.7 nM
[14]; line L131G, Q139L, Y217F (same values as PSAM4-5HT3 line)
  EC50: 1.7 nM
[15]
  EC50: 0.8 nM
[16]
  EC50: 4 nM
[17]
  EC50: > 100 nM
[18]
  EC50: 0.4 nM
[19]
  EC50: 0.7 nM
[20]
  EC50: > 100 nM
[21]
  EC50: 2.1 nM
[22]
  EC50: 2.4 nM
[23]
  EC50: 0.3 nM
[24]
  EC50: 1.2 nM
[25]
  EC50: > 100 nM
[26]
  EC50: 0.7 nM
